The target in this assay is PD-L1 (Homo sapiens, UniProt Q9NZQ7). Briefly: HTRF PD-1/PD-L1 binding assay.

The IC50 is the concentration that inhibits the measured activity by half. The low end stands for higher potency, the high end for lower potency.

PD-L1, sequence (Q15116 25-288): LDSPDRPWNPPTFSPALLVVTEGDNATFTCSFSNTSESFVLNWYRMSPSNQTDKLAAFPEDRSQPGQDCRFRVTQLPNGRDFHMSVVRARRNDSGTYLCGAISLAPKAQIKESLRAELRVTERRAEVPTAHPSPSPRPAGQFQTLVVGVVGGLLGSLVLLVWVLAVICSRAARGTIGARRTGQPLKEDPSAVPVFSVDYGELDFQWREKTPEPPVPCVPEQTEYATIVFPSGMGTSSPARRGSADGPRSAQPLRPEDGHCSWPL
PD-L1, sequence (Q9NZQ7 19-290): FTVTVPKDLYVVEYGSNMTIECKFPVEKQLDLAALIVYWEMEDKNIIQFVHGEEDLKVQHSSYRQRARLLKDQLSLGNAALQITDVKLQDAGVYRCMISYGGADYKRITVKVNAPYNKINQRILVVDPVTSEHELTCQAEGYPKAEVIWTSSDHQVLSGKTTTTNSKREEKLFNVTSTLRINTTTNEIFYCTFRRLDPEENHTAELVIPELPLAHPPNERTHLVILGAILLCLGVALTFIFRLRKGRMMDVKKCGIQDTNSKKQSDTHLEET

Consider `Cc1c(COc2ccc(CN3CCNCC3)c(OCc3cn(-c4cccc(C#N)c4)nn3)c2)cccc1-c1ccccc1` [compound 7, 3-(4-((5-((2-Methylbiphenyl-3-yl)methoxy)-2-(piperazin-1-ylmethyl)phenoxy)methyl)-1H-1,2,3-triazol-1-yl)benzonitrile], for which the IC50 is 8.52 µM. This counts as single-digit micromolar.
Turning to `Cc1c(COc2ccc(CN3CCN(C)CC3)c(OCc3cn(-c4cccc(C#N)c4)nn3)c2)cccc1-c1ccccc1` [8a, 3-(4-((5-((2-Methylbiphenyl-3-yl)methoxy)-2-((4-methylpiperazin-1yl)methyl)phenoxy)methyl)-1H-1,2,3-triazol-1-yl)benzonitrile], the IC50 was 14.1 µM.

Source of the values: publication PMC7450630 (ACS Omega, 2020).
